Assay results from the kinase profiling compilation of Christmann-Franck et al. (2016).

What was measured:
Test in all cases: radiometric filter-binding kinase assay, Kinase HotSpot
Conditions in all cases: compound 0.5 µM; ATP 10 µM
[1] = biological target: ADRBK2 (human) (UniProt P35626)
[2] = biological target: AKT1 (human) (UniProt P31749)
[3] = biological target: CAMKK2 (human) (UniProt Q96RR4)
[4] = biological target: CDK4 CCND1 (human) (UniProt P24385+P11802)
[5] = biological target: CLK3 (human) (UniProt P49761)
[6] = biological target: CSNK1A1 (human) (UniProt P48729)
[7] = biological target: CSNK1E (human) (UniProt P49674)
[8] = biological target: CSNK2A2 (human) (UniProt P19784)
[9] = biological target: DYRK3 (human) (UniProt O43781)
[10] = biological target: EPHA5 (human) (UniProt P54756)
[11] = biological target: EPHA8 (human) (UniProt P29322)
[12] = biological target: EPHB2 (human) (UniProt P29323)
[13] = biological target: ERBB4 (human) (UniProt Q15303)
[14] = biological target: FLT1 (human) (UniProt P17948)
[15] = biological target: GRK4 (human) (UniProt P32298)
[16] = biological target: IKBKB (human) (UniProt O14920)
[17] = biological target: IKBKE (human) (UniProt Q14164)
[18] = biological target: INSR (human) (UniProt P06213)
[19] = biological target: KDR (human) (UniProt P35968)
[20] = biological target: MAP3K14 (human) (UniProt Q99558)
[21] = biological target: MAP3K7 TAB1 (human) (UniProt O43318+Q15750)
[22] = biological target: MAP4K4 (human) (UniProt O95819)
[23] = biological target: MAP4K5 (human) (UniProt Q9Y4K4)
[24] = biological target: MAPKAPK2 (human) (UniProt P49137)
[25] = biological target: MLTK (human) (UniProt Q9NYL2)
[26] = biological target: MUSK (human) (UniProt O15146)
[27] = biological target: MYLK2 (human) (UniProt Q9H1R3)
[28] = biological target: NEK11 (human) (UniProt Q8NG66)
[29] = biological target: PAK3 (human) (UniProt O75914)
[30] = biological target: PASK (human) (UniProt Q96RG2)
[31] = biological target: PDGFRB (human) (UniProt P09619)
[32] = biological target: PKN1 (human) (UniProt Q16512)
[33] = biological target: PLK2 (human) (UniProt Q9NYY3)
[34] = biological target: PRKACA (human) (UniProt P17612)
[35] = biological target: PRKCA (human) (UniProt P17252)
[36] = biological target: PRKCG (human) (UniProt P05129)
[37] = biological target: PRKD3 (human) (UniProt O94806)
[38] = biological target: RAF1 (human) (UniProt P04049)
[39] = biological target: RET (human) (UniProt P07949)
[40] = biological target: RPS6KA5 KD2 (human) (UniProt O75582)
[41] = biological target: STK11 (human) (UniProt Q15831)
[42] = biological target: TSSK2 (human) (UniProt Q96PF2)

Chain of AKT1 (human) (P31749 whole entry, looked up): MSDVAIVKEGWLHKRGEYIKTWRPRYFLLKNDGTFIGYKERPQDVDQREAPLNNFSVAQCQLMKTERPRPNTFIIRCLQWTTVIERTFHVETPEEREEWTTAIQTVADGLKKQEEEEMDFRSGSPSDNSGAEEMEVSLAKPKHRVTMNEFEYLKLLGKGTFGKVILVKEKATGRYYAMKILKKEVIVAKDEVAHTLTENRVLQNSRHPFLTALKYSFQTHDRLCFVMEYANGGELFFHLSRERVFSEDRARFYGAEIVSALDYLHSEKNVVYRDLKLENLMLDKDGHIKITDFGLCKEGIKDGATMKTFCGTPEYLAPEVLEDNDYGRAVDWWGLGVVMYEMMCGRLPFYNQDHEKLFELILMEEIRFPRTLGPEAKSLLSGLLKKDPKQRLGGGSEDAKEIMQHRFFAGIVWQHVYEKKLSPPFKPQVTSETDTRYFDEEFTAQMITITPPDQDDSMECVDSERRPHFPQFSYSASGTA
Chain of CSNK1A1 (human) (P48729 whole entry, looked up): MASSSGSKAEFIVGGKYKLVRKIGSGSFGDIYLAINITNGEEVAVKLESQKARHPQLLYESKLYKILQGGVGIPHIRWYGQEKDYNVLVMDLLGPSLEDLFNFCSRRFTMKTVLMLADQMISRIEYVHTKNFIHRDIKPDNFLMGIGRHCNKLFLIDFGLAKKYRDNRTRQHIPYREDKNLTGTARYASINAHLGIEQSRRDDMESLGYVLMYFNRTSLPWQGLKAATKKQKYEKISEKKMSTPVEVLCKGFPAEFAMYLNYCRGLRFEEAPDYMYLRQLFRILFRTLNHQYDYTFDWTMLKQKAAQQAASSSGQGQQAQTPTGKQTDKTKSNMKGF
Chain of MAP4K5 (human) (Q9Y4K4 whole entry, looked up): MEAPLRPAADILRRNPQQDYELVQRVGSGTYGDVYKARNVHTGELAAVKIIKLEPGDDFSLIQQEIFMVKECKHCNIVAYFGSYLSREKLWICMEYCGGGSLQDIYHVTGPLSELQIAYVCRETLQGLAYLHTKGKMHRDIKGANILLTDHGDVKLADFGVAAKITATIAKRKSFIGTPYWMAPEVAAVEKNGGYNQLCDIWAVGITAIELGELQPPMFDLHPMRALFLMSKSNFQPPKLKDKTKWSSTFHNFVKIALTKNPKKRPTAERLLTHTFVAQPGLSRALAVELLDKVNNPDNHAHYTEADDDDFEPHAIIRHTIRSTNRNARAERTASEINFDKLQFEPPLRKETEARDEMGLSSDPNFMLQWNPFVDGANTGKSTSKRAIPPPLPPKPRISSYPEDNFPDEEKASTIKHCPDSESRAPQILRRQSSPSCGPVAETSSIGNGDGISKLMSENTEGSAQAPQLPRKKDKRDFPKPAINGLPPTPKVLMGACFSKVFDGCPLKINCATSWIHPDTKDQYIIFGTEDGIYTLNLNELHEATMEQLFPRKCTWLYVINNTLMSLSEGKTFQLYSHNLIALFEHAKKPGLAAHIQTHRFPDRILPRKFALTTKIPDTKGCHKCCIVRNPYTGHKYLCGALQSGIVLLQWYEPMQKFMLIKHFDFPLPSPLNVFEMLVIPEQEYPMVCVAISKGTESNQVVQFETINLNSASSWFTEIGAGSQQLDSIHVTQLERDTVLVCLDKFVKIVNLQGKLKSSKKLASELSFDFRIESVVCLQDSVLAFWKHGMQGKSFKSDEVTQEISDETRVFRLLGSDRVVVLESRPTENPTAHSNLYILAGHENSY
Chain of PASK (human) (Q96RG2 whole entry, looked up): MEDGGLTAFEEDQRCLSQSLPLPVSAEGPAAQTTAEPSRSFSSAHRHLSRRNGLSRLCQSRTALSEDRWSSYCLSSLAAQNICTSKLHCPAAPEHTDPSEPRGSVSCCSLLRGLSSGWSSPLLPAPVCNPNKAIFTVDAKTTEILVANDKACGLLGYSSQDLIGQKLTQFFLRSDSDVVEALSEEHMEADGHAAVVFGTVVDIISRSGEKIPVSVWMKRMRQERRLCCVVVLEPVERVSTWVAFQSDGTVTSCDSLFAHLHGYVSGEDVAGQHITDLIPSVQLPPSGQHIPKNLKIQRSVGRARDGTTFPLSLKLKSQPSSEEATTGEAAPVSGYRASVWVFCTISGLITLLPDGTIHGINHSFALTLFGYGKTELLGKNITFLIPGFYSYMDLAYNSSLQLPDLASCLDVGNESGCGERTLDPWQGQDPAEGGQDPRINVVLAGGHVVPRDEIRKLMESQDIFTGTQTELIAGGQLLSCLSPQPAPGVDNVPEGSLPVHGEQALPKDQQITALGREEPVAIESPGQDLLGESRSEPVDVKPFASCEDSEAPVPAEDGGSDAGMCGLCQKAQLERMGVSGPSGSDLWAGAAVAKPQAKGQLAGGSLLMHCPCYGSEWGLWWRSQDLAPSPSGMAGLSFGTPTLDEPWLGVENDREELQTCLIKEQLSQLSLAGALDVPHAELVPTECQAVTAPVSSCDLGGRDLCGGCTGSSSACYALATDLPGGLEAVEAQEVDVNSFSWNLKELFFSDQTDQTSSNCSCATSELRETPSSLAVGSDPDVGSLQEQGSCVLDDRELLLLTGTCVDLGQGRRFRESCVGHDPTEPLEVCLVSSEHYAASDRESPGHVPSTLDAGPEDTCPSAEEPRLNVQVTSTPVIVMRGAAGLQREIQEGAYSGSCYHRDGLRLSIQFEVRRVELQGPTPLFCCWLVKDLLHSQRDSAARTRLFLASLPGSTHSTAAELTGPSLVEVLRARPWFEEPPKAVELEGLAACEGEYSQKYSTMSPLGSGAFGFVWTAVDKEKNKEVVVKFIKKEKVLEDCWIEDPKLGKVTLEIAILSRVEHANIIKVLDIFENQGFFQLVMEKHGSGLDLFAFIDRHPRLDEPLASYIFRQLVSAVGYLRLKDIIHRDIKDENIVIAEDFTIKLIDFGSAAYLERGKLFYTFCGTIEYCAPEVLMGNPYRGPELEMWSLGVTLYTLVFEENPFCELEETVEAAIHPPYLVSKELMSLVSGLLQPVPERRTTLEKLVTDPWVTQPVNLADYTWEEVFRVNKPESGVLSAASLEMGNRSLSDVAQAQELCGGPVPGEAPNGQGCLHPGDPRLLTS
Chain of CSNK1E (human) (P49674 whole entry, looked up): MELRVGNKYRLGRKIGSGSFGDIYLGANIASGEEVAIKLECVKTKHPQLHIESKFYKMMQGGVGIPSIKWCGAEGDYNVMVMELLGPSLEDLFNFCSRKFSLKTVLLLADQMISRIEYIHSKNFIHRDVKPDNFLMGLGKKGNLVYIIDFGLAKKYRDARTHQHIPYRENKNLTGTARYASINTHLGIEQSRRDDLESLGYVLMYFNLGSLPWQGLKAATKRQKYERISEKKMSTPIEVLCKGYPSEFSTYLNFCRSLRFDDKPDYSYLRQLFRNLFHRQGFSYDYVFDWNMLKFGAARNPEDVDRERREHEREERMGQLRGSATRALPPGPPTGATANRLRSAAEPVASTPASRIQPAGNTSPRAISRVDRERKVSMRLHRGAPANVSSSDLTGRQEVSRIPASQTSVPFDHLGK
Chain of IKBKB (human) (O14920 whole entry, looked up): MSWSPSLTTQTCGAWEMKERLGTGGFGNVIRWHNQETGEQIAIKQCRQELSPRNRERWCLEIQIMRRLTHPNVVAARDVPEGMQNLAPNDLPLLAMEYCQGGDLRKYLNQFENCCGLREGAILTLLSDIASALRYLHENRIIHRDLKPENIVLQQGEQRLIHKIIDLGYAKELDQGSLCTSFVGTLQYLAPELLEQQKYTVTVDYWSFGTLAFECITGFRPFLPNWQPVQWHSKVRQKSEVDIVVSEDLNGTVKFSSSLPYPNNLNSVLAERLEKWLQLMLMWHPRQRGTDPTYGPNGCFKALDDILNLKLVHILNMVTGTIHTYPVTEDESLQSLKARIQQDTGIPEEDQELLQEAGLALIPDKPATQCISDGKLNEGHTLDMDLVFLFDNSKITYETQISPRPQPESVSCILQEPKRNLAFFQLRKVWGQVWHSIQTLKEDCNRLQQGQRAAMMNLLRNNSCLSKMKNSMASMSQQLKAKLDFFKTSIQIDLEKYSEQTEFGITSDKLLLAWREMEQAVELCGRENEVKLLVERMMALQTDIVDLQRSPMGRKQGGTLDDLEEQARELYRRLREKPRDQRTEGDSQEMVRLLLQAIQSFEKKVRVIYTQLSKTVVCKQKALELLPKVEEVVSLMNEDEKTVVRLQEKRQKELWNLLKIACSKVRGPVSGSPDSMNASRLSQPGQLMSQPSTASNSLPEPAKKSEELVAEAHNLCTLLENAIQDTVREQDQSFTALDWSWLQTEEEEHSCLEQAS

## N#C/C(=C(/N)Sc1ccc(N)cc1)c1ccccc1C(F)(F)F
[1]
  residual activity: 101%
[2]
  residual activity: 101%
[3]
  residual activity: 85.5%
[4]
  residual activity: 106%
[5]
  residual activity: 103%
[6]
  residual activity: 82.9%
[7]
  residual activity: 95.9%
[8]
  residual activity: 86%
[9]
  residual activity: 105%
[10]
  residual activity: 116%
[11]
  residual activity: 94.1%
[12]
  residual activity: 101%
[13]
  residual activity: 89.9%
[14]
  residual activity: 85.4%
[15]
  residual activity: 98.4%
[16]
  residual activity: 100%
[17]
  residual activity: 102%
[18]
  residual activity: 101%
[19]
  residual activity: 94.4%
[20]
  residual activity: 111%
[21]
  residual activity: 93.5%
[22]
  residual activity: 93.4%
[23]
  residual activity: 94%
[24]
  residual activity: 103%
[25]
  residual activity: 105%
[26]
  residual activity: 91.9%
[27]
  residual activity: 100%
[28]
  residual activity: 97.7%
[29]
  residual activity: 99.2%
[30]
  residual activity: 101%
[31]
  residual activity: 103%
[32]
  residual activity: 104%
[33]
  residual activity: 98.1%
[34]
  residual activity: 109%
[35]
  residual activity: 100%
[36]
  residual activity: 99.5%
[37]
  residual activity: 96.8%
[38]
  residual activity: 103%
[39]
  residual activity: 101%
[40]
  residual activity: 97.9%
[41]
  residual activity: 102%
[42]
  residual activity: 94.2%

## Cc1ccc(NC2=CC(=O)c3sc(C)nc3C2=O)cc1
[1]
  residual activity: 84.5%
[2]
  residual activity: 83.3%
[3]
  residual activity: 92.5%
[4]
  residual activity: 92%
[5]
  residual activity: 98.6%
[6]
  residual activity: 106%
[7]
  residual activity: 93.4%
[8]
  residual activity: 87.8%
[9]
  residual activity: 96.2%
[10]
  residual activity: 98.2%
[11]
  residual activity: 94.1%
[12]
  residual activity: 100%
[13]
  residual activity: 98.5%
[14]
  residual activity: 89.8%
[15]
  residual activity: 93.1%
[16]
  residual activity: 97.3%
[17]
  residual activity: 102%
[18]
  residual activity: 92.6%
[19]
  residual activity: 101%
[20]
  residual activity: 98.2%
[21]
  residual activity: 99.1%
[22]
  residual activity: 84.5%
[23]
  residual activity: 96.9%
[24]
  residual activity: 97.6%
[25]
  residual activity: 94%
[26]
  residual activity: 89.1%
[27]
  residual activity: 92.8%
[28]
  residual activity: 98.3%
[29]
  residual activity: 97.5%
[30]
  residual activity: 89.4%
[31]
  residual activity: 94.5%
[32]
  residual activity: 98.9%
[33]
  residual activity: 95.1%
[34]
  residual activity: 95.9%
[35]
  residual activity: 100%
[36]
  residual activity: 77%
[37]
  residual activity: 93.5%
[38]
  residual activity: 90.5%
[39]
  residual activity: 97.6%
[40]
  residual activity: 87.7%
[41]
  residual activity: 85.6%
[42]
  residual activity: 98.3%

## CC[n+]1c(/C=C/N(C)c2ccccc2)n(-c2ccccc2)c2ccc(-c3nc4ccccc4s3)cc21
[1]
  residual activity: 97.4%
[2]
  residual activity: 104%
[3]
  residual activity: 115%
[4]
  residual activity: 107%
[5]
  residual activity: 114%
[6]
  residual activity: 106%
[7]
  residual activity: 105%
[8]
  residual activity: 105%
[9]
  residual activity: 98.7%
[10]
  residual activity: 100%
[11]
  residual activity: 96.3%
[12]
  residual activity: 99.1%
[13]
  residual activity: 102%
[14]
  residual activity: 94.1%
[15]
  residual activity: 103%
[16]
  residual activity: 98.6%
[17]
  residual activity: 94.7%
[18]
  residual activity: 94%
[19]
  residual activity: 93.9%
[20]
  residual activity: 96%
[21]
  residual activity: 98.8%
[22]
  residual activity: 110%
[23]
  residual activity: 91.7%
[24]
  residual activity: 97.2%
[25]
  residual activity: 93.8%
[26]
  residual activity: 94.7%
[27]
  residual activity: 95.8%
[28]
  residual activity: 91.6%
[29]
  residual activity: 109%
[30]
  residual activity: 102%
[31]
  residual activity: 102%
[32]
  residual activity: 85.7%
[33]
  residual activity: 93.1%
[34]
  residual activity: 103%
[35]
  residual activity: 77.7%
[36]
  residual activity: 99.4%
[37]
  residual activity: 97.4%
[38]
  residual activity: 96.8%
[39]
  residual activity: 95.6%
[40]
  residual activity: 111%
[41]
  residual activity: 93.1%
[42]
  residual activity: 98.4%

## N#CC(C#N)=C(N)/C(C#N)=C/c1ccc(O)cc1
[1]
  residual activity: 96.7%
[2]
  residual activity: 99.2%
[3]
  residual activity: 91.6%
[4]
  residual activity: 100%
[5]
  residual activity: 100%
[6]
  residual activity: 85%
[7]
  residual activity: 92.4%
[8]
  residual activity: 102%
[9]
  residual activity: 97.7%
[10]
  residual activity: 94.3%
[11]
  residual activity: 102%
[12]
  residual activity: 97.1%
[13]
  residual activity: 92.7%
[14]
  residual activity: 90.7%
[15]
  residual activity: 99.6%
[16]
  residual activity: 102%
[17]
  residual activity: 91%
[18]
  residual activity: 94.2%
[19]
  residual activity: 97.2%
[20]
  residual activity: 108%
[21]
  residual activity: 94.8%
[22]
  residual activity: 91.2%
[23]
  residual activity: 99.6%
[24]
  residual activity: 91.3%
[25]
  residual activity: 95.7%
[26]
  residual activity: 103%
[27]
  residual activity: 99.4%
[28]
  residual activity: 97.2%
[29]
  residual activity: 98.4%
[30]
  residual activity: 82.9%
[31]
  residual activity: 98.8%
[32]
  residual activity: 89%
[33]
  residual activity: 99.9%
[34]
  residual activity: 100%
[35]
  residual activity: 97.4%
[36]
  residual activity: 105%
[37]
  residual activity: 91.9%
[38]
  residual activity: 86.3%
[39]
  residual activity: 110%
[40]
  residual activity: 96.7%
[41]
  residual activity: 96.5%
[42]
  residual activity: 94.6%
